This note sets out measurements from patent US7064120B2, “Tricyclic pyridyl carboxamides and derivatives thereof tocolytic oxytocin receptor antagonists” (Wyeth, priority 2001, dated 2006).

The target of this test is T1, human vasopressin V1a receptor subtype (Homo sapiens, UniProt P37288).
T1 construct: host or cells: CHO cells, stably transfected (pZeoSV vector for the Thibonnier line)
T1 sequence (P37288 whole entry): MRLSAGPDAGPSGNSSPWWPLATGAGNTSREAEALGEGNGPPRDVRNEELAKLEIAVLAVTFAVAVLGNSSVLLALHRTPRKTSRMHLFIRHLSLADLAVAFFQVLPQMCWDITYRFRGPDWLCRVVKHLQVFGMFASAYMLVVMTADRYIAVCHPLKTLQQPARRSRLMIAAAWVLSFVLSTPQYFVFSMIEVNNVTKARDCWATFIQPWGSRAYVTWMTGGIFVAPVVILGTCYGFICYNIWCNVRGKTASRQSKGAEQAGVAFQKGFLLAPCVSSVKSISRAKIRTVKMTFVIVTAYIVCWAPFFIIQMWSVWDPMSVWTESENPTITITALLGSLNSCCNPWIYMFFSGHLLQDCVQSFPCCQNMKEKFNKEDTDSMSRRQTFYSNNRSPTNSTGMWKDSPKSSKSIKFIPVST
Put plainly: Vasopressin binding in CHO cell membranes expressing human vasopressin V1a subtype receptors ([3H]Manning ligand radioligand binding). The conditions noted are these: 100 nM. The procedure:
Vasopressin Binding in Chinese Hamster Ovary Cell Membranes Expressing Human Vasopressin V1a Subtype Receptors
The trypsin is removed by aspiration and the cells dislodged by tapping. Cell Culture medium (e.g. 30 mL for 1:30 split) is immediately added and mixed well to inactivate trypsin. 1 mL of detached cells is added to new culture flasks containing fresh cell culture medium (e.g., into 25 mL per T-150 flask), and mixed gently. The cells are incubated at 37° C. in 5% CO2. The medium is changed at 3 to 4 days interval (or as appropriate). […] All steps are done under sterile conditions.
The cells are washed twice gently with Hank's Balanced Salt solution (e.g,. use 10 mL per T-150 flask). […] The contents are transferred to centrifuge tubes (50 mL) kept in an ice bath. All subsequent steps are done at 4° C. The tubes are centrifuged at 300×g for 15 min (1380 rpm on SORVAL, Model RT6000D, using the rotor for 50 mL tubes). The supernatant is discarded and the cells suspended in homogenizing buffer(10 mM Tris-HCl containing 0.25 M sucrose and 1 mM EDTA, pH 7.4) ensuring that the volume of the buffer is about ten times the volume of the cell pellet. The cells are pooled into a centrifuge tube (50 mL) and homogenized with Polytron at setting 6 for 10 sec. The homogenate is transferred into a Potter-Elvjehm homogenizer and homogenized with 3 strokes. The homogenate is centrifuged at 1500×g for 10 min at 4° C. (3100 rpm using SORVAL, model RT6000D, using the rotor for 50 mL tubes). The pellet is discarded. The supernatant is centrifuged at 100,000×g for 60 min. at 4° C. (Beckman L8-80M ultracentrifuge; spin at 37,500 rpm with rotor type 70 Ti for 50 mL tubes; 38,000 rpm with type 80Ti for 15 mL tubes; or 35,800 rpm with rotor type 45Ti). The supernantant is discarded and the pellet suspended in 3 to 4 mL of Tris buffer (50 mM TRIS-HCl, pH 7.4). The protein content is estimated by the Bradford or Lowry method. The volume of the membrane suspension is adjusted with the membrane buffer (50 mM Tris-HCl containing 0.1% BSA and 0.1 mM PMSF) to give 3.0 mg/mL (or as appropriate) of protein. The membranes are aliquoted and stored at −70° C.
In wells of a 96-well format microtiter plate, is added 90, 110 or 130 μL (to make up a final volume of 200 μL) of assay buffer containing 50 mM of Tris-HCl (pH 7.4), BSA (heat inactivated, protease-free), […], 1 mg % aprotinin, 1 mg % leupeptin, 2 mg % 1,10-phenanthroline, 10 mg % trypsin inhibitor, and 0.1 mM PMSF. The inhibitors are added on the day of the experiment. The components are mixed at room temperature, and then kept in ice bath following adjustment of the pH to 7.4. […] 20 μL of 50% DMSO is added for Manning and other peptide ligands and the assay buffer volume is adjusted accordingly. To each well is added 50 μL of frozen membrane suspension thawed immediately prior to use and diluted in the assay buffer to the required concentration (equivalent to 25 to 50 μg of protein/well as needed). 20 μL of 8 nM [^3H]Manning ligand in the assay buffer, prepared just before use, is added, and incubated at room temperature for 60 min. shaking the plate on a mechanical shaker for the first 15 min. The incubation is stopped by rapid filtration of the plate contents followed by wash with ice-cold buffer (50 mM Tris-HCl, pH 7.4) using a cell harvester (Tomtek and Printed filtermat-B filter paper). The filter paper is thoroughly dried (7–12 min. in a microwave oven) and impregnated with MeltiLex B/H melt-on scintillation wax sheets and the radioactivity counted in a betaplate scintillation counter.
Binding data is either reported as percent inhibition at a certain concentration or if an IC50 was calculated, as a nanomolar concentration.
With `Cc1ccccc1-c1ccc(C(=O)N2Cc3ccc(C(=O)NCc4ccccn4)n3Cc3ccccc32)cc1` [Example 27, 10-[(2′-Methyl-[1,1′-biphenyl]-4-yl)carbonyl]-N-(2-pyridinylmethyl)-10,11-dihydro-5H-pyrrolo[2,1-c][1,4]benzodiazepine-3-carboxamide], 0.1 µM produced 20% inhibition. In the case of `O=C(NCc1ccccn1)c1ccc2n1Cc1ccccc1N(C(=O)c1ccc(-c3cccc4ccccc34)cc1Cl)C2` [Example 34, 10-[2-Chloro-4-(naphthalen-1-yl)benzoyl]-N-(2-pyridinylmethyl)-10,11-dihydro-5H-pyrrolo[2,1-c][1,4]benzodiazepine-3-carboxamide], at 0.1 µM the inhibition was 5%. `COc1cc(C(=O)N2Cc3ccc(C(=O)N4CCN(c5ccncc5)CC4)n3Cc3ccccc32)ccc1-n1c(C)ccc1C` [Example 146, {10-[4-(2,5-Dimethyl-1H-pyrrol-1-yl)-3-methoxybenzoyl]-10,11-dihydro-5H-pyrrolo[2,1-c][1,4]benzodiazepin-3-yl}[4-(pyridin-4-yl)-1-piperazinyl]methanone] registered an inhibition at 0.1 µM of 11%. On the same count and under the same terms, then `COc1ccccc1-c1ccc(C(=O)N2Cc3ccc(C(=O)N(C)CCc4ccncc4)n3Cc3ccccc32)cc1OC` [Example 125, 10-[(2,2′-Dimethoxy-[1,1′-biphenyl]-4-yl)carbonyl]-N-methyl-N-[2-(4-pyridinyl)ethyl]-10,11-dihydro-5H-pyrrolo[2,1-c][1,4]benzodiazepine-3-carboxamide], with 17%; and `COc1cc(C(=O)N2Cc3ccc(C(=O)NCCc4ccccn4)n3Cc3ccccc32)ccc1-c1cccc2ccccc12` [Example 57, 10-[3-Methoxy-4-(naphthalen-1-yl)benzoyl]-N-[2-(2-pyridinyl)ethyl]-10,11-dihydro-5H-pyrrolo[2,1-c][1,4]benzodiazepine-3-carboxamide], with 2%; and `COc1cc(-c2ccccc2C)c(Cl)cc1C(=O)N1Cc2ccc(C(=O)N(C)Cc3cccnc3)n2Cc2ccccc21` [Example 107, 10-[(6-Chloro-3-methoxy-2′-methyl-[1,1′-biphenyl]-4-yl)carbonyl]-N-methyl-N-(3-pyridinylmethyl)-10,11-dihydro-5H-pyrrolo[2,1-c][1,4]benzodiazepine-3-carboxamide], with 12%. The compound `COc1cccc(-c2ccc(C(=O)N3Cc4ccc(C(=O)N(C)CCc5ccncc5)n4Cc4ccccc43)cc2C)c1` [Example 128, 10-[(3′-Methoxy-2-methyl-[1,1′-biphenyl]-4-yl)carbonyl]-N-methyl-N-[2-(4-pyridinyl)ethyl]-10,11-dihydro-5H-pyrrolo[2,1-c][1,4]benzodiazepine-3-carboxamide] came in with an inhibition at 0.1 µM of 31%.

`COc1cccc(-c2ccc(C(=O)N3Cc4ccc(C(=O)N5CCN(c6ccncc6)CC5)n4Cc4ccccc43)cc2OC)c1` [Example 123, {10-[(2,3′-Dimethoxy-[1,1′-biphenyl]-4-yl)carbonyl]-10,11-dihydro-5H-pyrrolo[2,1-c][1,4]benzodiazepin-3-yl}[4-(4-pyridinyl)-1-piperazinyl]methanone] displayed an inhibition at 0.1 µM of 71%. On to `COc1cccc(-c2ccc(C(=O)N3Cc4ccc(C(=O)NCc5ccncc5)n4Cc4ccccc43)cc2OC)c1` [Example 98], for which the “V1a % inhibition @ 100 nM” value is given as 24%. On to `COc1cc(C(=O)N2Cc3ccc(C(=O)NCc4ccccn4)n3Cc3ccccc32)ccc1-c1ccccc1C` [Example 28, 10-[(2-Methoxy-2′-methyl-[1,1′-biphenyl]-4-yl)carbonyl]-N-(2-pyridinylmethyl)-10,11-dihydro-5H-pyrrolo[2,1-c][1,4]benzodiazepine-3-carboxamide], for which the inhibition at 0.1 µM came out at 28%. In turn, `COc1cc(C(=O)N2Cc3ccc(C(=O)N(C)CCc4ccncc4)n3Cc3ccccc32)ccc1-n1c(C)ccc1C` [Example 147, 10-[4-(2,5-Dimethyl-1H-pyrrol-1-yl)-3-methoxybenzoyl]-N-methyl-N-[2-(pyridin-4-yl)ethyl]-10,11-dihydro-5H-pyrrolo[2,1-c][1,4]benzodiazepine-3-carboxamide] showed an inhibition at 0.1 µM of 15%. In turn, `COc1cccc(-c2ccc(C(=O)N3Cc4ccc(C(=O)NCc5cccnc5)n4Cc4ccccc43)cc2C)c1` [Example 38, 10-[(3′-Methoxy-2-methyl-[1,1′-biphenyl]-4-yl)carbonyl]-N-(3-pyridinylmethyl)-10,11-dihydro-5H-pyrrolo[2,1-c][1,4]benzodiazepine-3-carboxamide] yielded an inhibition at 0.1 µM of 0%.

With `COc1cc(-c2ccccc2C)c(Cl)cc1C(=O)N1Cc2ccc(C(=O)N3CCN(c4ccncc4)CC3)n2Cc2ccccc21` [Example 119, {10-[(6-Chloro-3-methoxy-2′-methyl-[1,1′-biphenyl]-4-yl)carbonyl]-10,11-dihydro-5H-pyrrolo[2,1-c][1,4]benzodiazepin-3-yl}[4-(4-pyridinyl)-1-piperazinyl]methanone], the inhibition at 0.1 µM was 9%. Turning to `Cc1ccccc1-c1ccc(C(=O)N2Cc3ccc(C(=O)NCc4cccnc4)n3Cc3ccccc32)cc1C` [Example 37, 10-[(2,2′-Dimethyl-[1,1′-biphenyl]-4-yl)carbonyl]-N-(3-pyridinylmethyl)-10,11-dihydro-5H-pyrrolo[2,1-c][1,4]benzodiazepine-3-carboxamide], 0.1 µM produced 12% inhibition. Still for that read-out and setting: then `COc1ccccc1-c1ccc(C(=O)N2Cc3ccc(C(=O)NCc4ccccn4)n3Cc3ccccc32)cc1` [Example 26, 10-[(2′-Methoxy-[1,1′-biphenyl]-4-yl)carbonyl]-N-(2-pyridinylmethyl)-10,11-dihydro-5H-pyrrolo[2,1-c][1,4]benzodiazepine-3-carboxamide], with 17%; and `COc1cccc(-c2ccc(C(=O)N3Cc4ccc(C(=O)NCCc5ccccn5)n4Cc4ccccc43)cc2C)c1` [Example 51, 10-[(3′-Methoxy-2-methyl-[1,1′-biphenyl]-4-yl)carbonyl]-N-[2-(2-pyridinyl)ethyl]-10,11-dihydro-5H-pyrrolo[2,1-c][1,4]benzodiazepine-3-carboxamide], with 2%; and `COc1ccccc1-c1ccc(C(=O)N2Cc3ccc(C(=O)N(C)CCc4ccncc4)n3Cc3ccccc32)cc1C` [Example 126, 10-[(2′-Methoxy-2-methyl-[1,1′-biphenyl]-4-yl)carbonyl]-N-methyl-N-[2-(4-pyridinyl)ethyl]-10,11-dihydro-5H-pyrrolo[2,1-c][1,4]benzodiazepine-3-carboxamide], with 38%. The compound `Cc1ccccc1-c1ccc(C(=O)N2Cc3ccc(C(=O)NCc4cccnc4)n3Cc3ccccc32)cc1` [Example 40, 10-[(2′-Methyl-[1,1′-biphenyl]-4-yl)carbonyl]-N-(3-pyridinylmethyl)-10,11-dihydro-5H-pyrrolo[2,1-c][1,4]benzodiazepine-3-carboxamide] showed an inhibition at 0.1 µM of 15%. `COc1ccccc1-c1ccc(C(=O)N2Cc3ccc(C(=O)NCc4ccccn4)n3Cc3ccccc32)cc1OC` [Example 32, 10-[(2,2′-Dimethoxy-[1,1′-biphenyl]-4-yl)carbonyl]-N-(2-pyridinylmethyl)-10,11-dihydro-5H-pyrrolo[2,1-c][1,4]benzodiazepine-3-carboxamide] displayed an inhibition at 0.1 µM of 13%. Regarding `O=C(c1ccc2n1Cc1ccccc1N(C(=O)c1ccc(-c3cccc4ccccc34)cc1Cl)C2)N1CCN(c2ccncc2)CC1` [Example 124, {10-[2-Chloro-4-(naphthalen-1-yl)benzoyl]-10,11-dihydro-5H-pyrrolo[2,1-c][1,4]benzodiazepin-3-yl}[4-(4-pyridinyl)-1-piperazinyl]methanone], the inhibition at 0.1 µM came out at 11%.

What is called inhibition is the drop in the measured response relative to a control, in per cent. Lower therefore signals a response near the control.
